Organism: Rattus norvegicus
Experiment: DrugMatrix - Regimen: Daily Repeat
Type: toxicity, organism-based, Sprague-Dawley
Design: regimen Daily Repeat, gender Male, age 6-8 weeks
Settings: in vivo, sc, route mini-PUMP - SUBCUTANEOUS, vehicle 100 % SALINE
[1] = 2 mg/kg, 72 h, tissue Blood, dose level High, time 3 day
[2] = 2 mg/kg, 72 h, tissue Plasma, dose level High, time 3 day
[3] = 2 mg/kg, 120 h, tissue Blood, dose level High, time 5 day
[4] = 2 mg/kg, 120 h, tissue Plasma, dose level High, time 5 day
[5] = 2 mg/kg, […], tissue Blood, dose level High, time 14 day
[6] = 2 mg/kg, […], tissue Plasma, dose level High, time 14 day

SMILES: CC(C)NCC(O)c1ccc(O)c(O)c1 (centres undefined) [ISOPROTERENOL]
- NUCLEATED RED BLOOD CELLS (0 mg/kg, […], tissue Blood, dose level Control, time 14 day): 0.17 /100WBC
- CREATINE PHOSPHOKINASE (0 mg/kg, […], tissue Plasma, dose level Control, time 14 day): 262 u/L
- ABSOLUTE BASOPHIL [1]: 95 cells/µL
- ABSOLUTE EOSINOPHIL [1]: 95 cells/µL
- ABSOLUTE LYMPHOCYTE [1]: 13000 cells/µL
- ABSOLUTE MONOCYTE [1]: 420 cells/µL
- BASOPHIL [1]: 0.5%
- EOSINOPHIL [1]: 0.55%
- ERYTHROCYTE COUNT [1]: 6.36 x10E6/uL
- HEMATOCRIT [1]: 43.4%
- HEMOGLOBIN [1]: 13 G/DL
- LEUKOCYTE COUNT [1]: 17.82 x10E3/uL
- LYMPHOCYTE [1]: 73.55%
- MEAN CORPUSCULAR HEMOGLOBIN [1]: 20.5 pg
- MEAN CORPUSCULAR HEMOGLOBIN CONCENTRATION [1]: 30.05 G/DL
- MEAN CORPUSCULAR VOLUME [1]: 68.3 fL
- MONOCYTE [1]: 2.35%
- NEUTROPHIL [1]: 22.05%
- PLATELET COUNT [1]: 1170.5 x10E3/uL
- ALANINE AMINOTRANSFERASE [2]: 32 u/L
- ALBUMIN [2]: 3.9 G/DL
- ALKALINE PHOSPHATASE [2]: 349 u/L
- ASPARTATE AMINOTRANSFERASE [2]: 75.5 u/L
- BLOOD UREA NITROGEN [2]: 17 mg/dL
- CARBON DIOXIDE [2]: 40.5 mmol/L
- CHLORIDE [2]: 107 MEQ/L
- CHOLESTEROL [2]: 87.5 mg/dL
- CREATINE PHOSPHOKINASE [2]: 449.5 u/L
- CREATININE [2]: 0.55 mg/dL
- GLUCOSE [2]: 141 mg/dL
- LIPASE [2]: 47.5 u/L
- PHOSPHORUS [2]: 9.6 mg/dL
- POTASSIUM [2]: 6.05 MEQ/L
- SODIUM [2]: 150.5 MEQ/L
- TOTAL BILIRUBIN [2]: 0.3 mg/dL
- TOTAL PROTEIN [2]: 6.25 G/DL
- URIC ACID [2]: 0.8 mg/dL
- ABSOLUTE BASOPHIL [3]: 50 cells/µL
- ABSOLUTE EOSINOPHIL [3]: 110 cells/µL
- ABSOLUTE LYMPHOCYTE [3]: 10400 cells/µL
- ABSOLUTE MONOCYTE [3]: 350 cells/µL
- BASOPHIL [3]: 0.37%
- EOSINOPHIL [3]: 0.83%
- ERYTHROCYTE COUNT [3]: 6.25 x10E6/uL
- HEMATOCRIT [3]: 42.73%
- HEMOGLOBIN [3]: 12.9 G/DL
- LEUKOCYTE COUNT [3]: 14.26 x10E3/uL
- LYMPHOCYTE [3]: 72.93%
- MEAN CORPUSCULAR HEMOGLOBIN [3]: 20.63 pg
- MEAN CORPUSCULAR HEMOGLOBIN CONCENTRATION [3]: 30.17 G/DL
- MEAN CORPUSCULAR VOLUME [3]: 68.4 fL
- MONOCYTE [3]: 2.5%
- NEUTROPHIL [3]: 22.8%
- PLATELET COUNT [3]: 1375.33 x10E3/uL
- ALANINE AMINOTRANSFERASE [4]: 41.67 u/L
- ALBUMIN [4]: 3.77 G/DL
- ALKALINE PHOSPHATASE [4]: 331.33 u/L
- ASPARTATE AMINOTRANSFERASE [4]: 78 u/L
- BLOOD UREA NITROGEN [4]: 15.33 mg/dL
- CARBON DIOXIDE [4]: 39.67 mmol/L
- CHLORIDE [4]: 108 MEQ/L
- CHOLESTEROL [4]: 85.67 mg/dL
- CREATINE PHOSPHOKINASE [4]: 183 u/L
- CREATININE [4]: 0.57 mg/dL
- GLUCOSE [4]: 168.33 mg/dL
- LIPASE [4]: 99 u/L
- PHOSPHORUS [4]: 10.23 mg/dL
- POTASSIUM [4]: 5.97 MEQ/L
- SODIUM [4]: 150 MEQ/L
- TOTAL BILIRUBIN [4]: 0.33 mg/dL
- TOTAL PROTEIN [4]: 6.03 G/DL
- URIC ACID [4]: 1 mg/dL
- ABSOLUTE BASOPHIL [5]: 60 cells/µL
- ABSOLUTE EOSINOPHIL [5]: 110 cells/µL
- ABSOLUTE LYMPHOCYTE [5]: 11600 cells/µL
- ABSOLUTE MONOCYTE [5]: 300 cells/µL
- BASOPHIL [5]: 0.42%
- EOSINOPHIL [5]: 0.72%
- ERYTHROCYTE COUNT [5]: 6.69 x10E6/uL
- HEMATOCRIT [5]: 44.4%
- HEMOGLOBIN [5]: 14.28 G/DL
- LEUKOCYTE COUNT [5]: 14.87 x10E3/uL
- LYMPHOCYTE [5]: 78.08%
- MEAN CORPUSCULAR HEMOGLOBIN [5]: 21.3 pg
- MEAN CORPUSCULAR HEMOGLOBIN CONCENTRATION [5]: 32.12 G/DL
- MEAN CORPUSCULAR VOLUME [5]: 66.4 fL
- MONOCYTE [5]: 1.94%
- NEUTROPHIL [5]: 18.22%
- PLATELET COUNT [5]: 1074.6 x10E3/uL
- ALANINE AMINOTRANSFERASE [6]: 40.6 u/L
- ALBUMIN [6]: 4 G/DL
- ALKALINE PHOSPHATASE [6]: 424.4 u/L
- ASPARTATE AMINOTRANSFERASE [6]: 98.2 u/L
- BLOOD UREA NITROGEN [6]: 19.2 mg/dL
- CARBON DIOXIDE [6]: 38.8 mmol/L
- CHLORIDE [6]: 105.8 MEQ/L
- CHOLESTEROL [6]: 73.4 mg/dL
- CREATINE PHOSPHOKINASE [6]: 274.2 u/L
- CREATININE [6]: 0.8 mg/dL
- GLUCOSE [6]: 132 mg/dL
- LACTATE DEHYDROGENASE [6]: 214.4 u/L
- LIPASE [6]: 11.8 u/L
- PHOSPHORUS [6]: 9.98 mg/dL
- POTASSIUM [6]: 6.02 MEQ/L
- SODIUM [6]: 149.2 MEQ/L
- TOTAL BILIRUBIN [6]: 0.36 mg/dL
- TOTAL PROTEIN [6]: 6.46 G/DL
- URIC ACID [6]: 0.62 mg/dL
- ABSOLUTE BASOPHIL ([…], 72 h, tissue Blood, dose 4.2 mg/Kg, dose level M1, time 3 day): 0 CELLS/uL

— ChEMBL document CHEMBL3885881, “DrugMatrix”
